Data set [1] is described as follows: Determination of the blood-to-plasma ratio (spiked whole blood and plasma, GC–MS of plasma). It is filed as in vitro ADME. Conditions: pooled human blood, haematocrit 41%, 1 h at 37 °C; for blood plasma ratio at 1 h, 5 µM: both sexes, pooled whole blood and plasma, read-out: Kb/p experimental (blood-to-plasma ratio); for Kb/p experimental (blood-to-plasma ratio): 5 µM. As for the experimental part: Human blood (pooled, from three male donors and three female donors) was obtained from Seralab (West Sussex, UK). Blood was received chilled with sodium citrate as an anticoagulant and kept at 4 °C until use. The blood was used prior to its expiration date. Blood haematocrit was 41%, as provided by the supplier.
In this method, only analysis of the plasma is required. Briefly, the compound is spiked into equal volumes of whole blood and plasma. Following equilibration, the whole blood is centrifuged to extract the plasma. The extracted plasma and the original plasma are analysed to obtain compound concentrations. The blood-to-plasma ratio can then be calculated from Eq. 1 (shown below).
In this work, aliquots of whole blood (5 mL) were centrifuged at 2500 rpm for 20 min to provide plasma. This was performed on the day of the experiments. The plasma was removed and stored at 4 °C until use (typically within 2 h).
The compounds were dissolved in DMSO or acetonitrile to produce 5 mM stock solutions. Stock solutions were diluted with PBS (pH 7.4) to produce working solutions (50 µM) on the day of experimentation. Stock solutions were stored for no longer than 1 week. Appropriate volumes of working solutions were added to blood or plasma to yield a final compound concentration of 5 µM (final solvent concentrations were 0.1%). The treated blood or plasma samples were incubated for 1 h at 37 °C. Following incubation, the blood sample was removed and centrifuged at 2500 rpm for 20 min and the plasma was extracted. The 250 µL of extracted plasma (from spiked whole blood) and 250 µL of spiked plasma had ice-cold acetonitrile added to precipitate proteins (4:1 ratio of acetonitrile-to-plasma). Both plasma samples were then centrifuged at 10,000 rpm for 20 min. The supernatants were collected and evaporated under a stream of nitrogen using a Biotage Turbovap LV Evaporator. The evaporated samples were reconstituted in 150 µL acetonitrile and analysed using gas chromatography–mass spectrometry (GC–MS).
The […] was calculated using Eq. 11 Ke/p=1/H×CPRef/CP-1+1, where Ke/p is the red blood cell partition coefficient, H is the haematocrit, CPRef is the concentration (µM) in the reference plasma, and CP is the concentration (µM) in the plasma separated from the whole blood.
Ke/p describes the ratio of the concentration of drug in the red blood cells (not including plasma) to the concentration of drug in plasma. Ke/p can be converted to the blood-to-plasma ratio (Kb/p) with Eq. 22 Kb/p=(Ke/p×H)+1-H, where Kb/p is the blood-to-plasma ratio, Ke/p is the […], and H is the haematocrit. Kb/p therefore describes the ratio of the concentration of drug in whole blood (containing both red blood cells and plasma) to the concentration of the drug in plasma.

For data set [2] the following is noted: ref 13; cited from earlier work.
For data set [3] the following is noted: cited from earlier work; for Kb/p literature (blood-to-plasma ratio): literature range.
A further data set addresses GABAA receptor. Set-up: method as in PMID 29685303. Conditions: QSAR, previous work; cited from earlier work.
On the set-up of data set [4]: method as in PMID 31933443. Conditions: user reports; cited from earlier work.

Like-named read-outs stand apart in the source and are kept apart here.

The source of these data is PMC9715504, “The blood-to-plasma ratio and predicted GABAA-binding affinity of designer benzodiazepines” (Forensic Toxicology, 2022).

Take `CCc1cc2c(s1)-n1c(C)nnc1CN=C2c1ccccc1Cl` [Etizolam, etizolam]: the blood plasma ratio at 1 h, 5 µM in data set [1] was 0.7 ± 0.03. The plasma protein binding in data set [2] is given as 92.8%.

For `O=C1CN=C(c2ccccc2Cl)c2cc([N+](=O)[O-])ccc2N1` [Clonazepam, clonazepam], the blood-to-plasma ratio in data set [3] (ref 37) is 0.65.

For the compound `O=C1CN=C(c2ccccc2Cl)c2cc(Br)ccc2N1` [Phenazepam, phenazepam], in data set [1], the blood plasma ratio at 1 h, 5 µM was 0.57 ± 0.13. The plasma protein binding in data set [2] was 98.3%.

For the compound `Cc1nnc2n1-c1ccc([N+](=O)[O-])cc1C(c1ccccc1F)=NC2` [flunitrazolam], the “predicted log 1/c value” at GABAA receptor is 8.88.

For `CN1C(=O)CN=C(c2ccccc2Cl)c2cc(Cl)ccc21` [Diclazepam, diclazepam], the “Kb/p experimental (blood-to-plasma ratio)” value in data set [1] turned out to be 0.82 ± 0.05. Also, the plasma protein binding in data set [2] was 93.8%.

Regarding `O=C1Nc2ccc(Cl)cc2C(c2ccccc2Cl)=NC1O` (stereo not drawn) [lorazepam], the blood-to-plasma ratio is 0.60 in data set [3] (ref 16) and 1.14 in data set [3] (ref 38).

Turning to `CN(C)CCCN1c2ccccc2Sc2ccc(Cl)cc21` [Chlorpromazine, chlorpromazine], the blood plasma ratio at 1 h, 5 µM in data set [1] came to 1.43 ± 0.32. Also, the “Kb/p literature (blood-to-plasma ratio)” value in data set [3] is 1.17–1.56.

Take `O=C1CN=C(c2ccccc2)c2cc([N+](=O)[O-])ccc2N1` [Nitrazepam, nitrazepam]: the blood plasma ratio at 1 h, 5 µM in data set [1] worked out at 0.63 ± 0.02. For the same compound, the blood-to-plasma ratio in data set [3] (calculated from literature whole blood and plasma concentrations (125-I radioimmunoassay)) is 0.57 ± 0.27; in data set [3] (commonly reported value, origin unclear), 1.0. The “Kb/p literature (blood-to-plasma ratio)” value in data set [3] is 0.57–1.00.

For `Cc1nnc2n1-c1ccc(Br)cc1C(c1ccccn1)=NC2` [Pyrazolam, pyrazolam], the “Kb/p experimental (blood-to-plasma ratio)” value in data set [1] is 1.18 ± 0.03. The plasma protein binding in data set [2] was 78.7%.

Take `C[C@@H]1N=C(c2ccccc2Cl)c2cc([N+](=O)[O-])ccc2NC1=O` [Meclonazepam, meclonazepam]: the blood plasma ratio at 1 h, 5 µM in data set [1] was 0.83 ± 0.08.

For `Cc1nnc2n1-c1sc(Cl)cc1C(c1ccccc1F)=NC2` [Fluclotizolam], the “dose reported as having a 'heavy effect'” value in data set [4] is given as “more than 0.75 mg”.

Turning to `CCc1cc2c(s1)-n1c(C)nnc1CN=C2c1ccccc1` [Deschloroetizolam, deschloroetizolam], the “Kb/p experimental (blood-to-plasma ratio)” value in data set [1] worked out at 0.68 ± 0.06. For the same compound, the plasma protein binding in data set [2] is reported as 87.2%.

For the compound `C=C[C@H]1C[N@@]2CC[C@H]1C[C@H]2[C@H](O)c1ccnc2ccc(OC)cc12` [Quinine, quinine], in data set [1], the blood plasma ratio at 1 h, 5 µM was determined as 1.66 ± 0.52. In data set [3], the “Kb/p literature (blood-to-plasma ratio)” value is 1.46–2.00.
